In US20140128385A1 (NOVARTIS AG, priority 2011, published 2014):

Target: T1, BACE-2 (Homo sapiens, UniProt Q9Y5Z0)
T1 construct: Recombinant BACE-2 (extracellular domain, expressed in baculovirus and purified using standard methods); made in house
T1 sequence (Q9Y5Z0 63-473 limits assumed): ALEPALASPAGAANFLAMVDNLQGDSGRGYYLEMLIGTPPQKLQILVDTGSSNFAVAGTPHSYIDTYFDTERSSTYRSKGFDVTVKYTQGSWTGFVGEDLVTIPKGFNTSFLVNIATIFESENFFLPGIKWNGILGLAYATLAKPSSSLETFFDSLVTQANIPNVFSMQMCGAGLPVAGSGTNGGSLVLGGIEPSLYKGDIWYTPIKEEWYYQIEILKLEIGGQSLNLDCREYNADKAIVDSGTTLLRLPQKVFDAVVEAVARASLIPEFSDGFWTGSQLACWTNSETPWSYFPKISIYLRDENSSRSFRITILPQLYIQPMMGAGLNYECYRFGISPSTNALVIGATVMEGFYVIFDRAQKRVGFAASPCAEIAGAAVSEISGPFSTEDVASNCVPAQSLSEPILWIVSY
Experiment: assay for inhibition of BACE-2
Type: biochemical

| SMILES | IC50 [nM] |
| --- | --- |
| [2H]C([2H])([2H])OC([2H])([2H])c1cc2c(Cl)c[nH]c2nc1C(=O)Nc1ccc(F)c([C@]2(C)CO[C@@](C)(C(F)(F)F)C(N)=N2)c1 [Example 247, 3-Chloro-5-trideuteromethoxy-dideuteromethyl-1H-pyrrolo[2,3-b]pyridine-6-carboxylic acid [3-((3R,6R)-5-amino-3,6-dimethyl-6-trifluoromethyl-3,6-dihydro-2H-[1,4]oxazin-3-yl)-4-fluoro-phenyl]-amide] | 44 |
| C[C@@]1(c2cc(NC(=O)c3ncc(C(F)(F)F)cc3Cl)ccc2F)CO[C@@](C)(C(F)(F)F)C(N)=N1 [Example 248, 3-Chloro-5-trifluoromethyl-pyridine-2-carboxylic acid [3-((3R,6R)-5-amino-3,6-dimethyl-6-trifluoromethyl-3,6-dihydro-2H-[1,4]oxazin-3-yl)-4-fluoro-phenyl]-amide] | 22 |
| Cc1cc(F)cnc1C(=O)Nc1ccc(F)c([C@]2(C)CO[C@@](C)(C(F)(F)F)C(N)=N2)c1 [Example 249, 5-Fluoro-3-methyl-pyridine-2-carboxylic acid [3-((3R,6R)-5-amino-3,6-dimethyl-6-trifluoro-methyl-3,6-dihydro-2H-[1,4]oxazin-3-yl)-4-fluoro-phenyl]-amide] | 3 |
| Cc1cc(OC(F)F)cnc1C(=O)Nc1ccc(F)c(C2(C)COC(CF)(CF)C(N)=N2)c1 (centres unmarked) [Example 253, 5-Difluoromethoxy-3-methyl-pyridine-2-carboxylic acid [3-(5-amino-6,6-bis-fluoromethyl-3-methyl-3,6-dihydro-2H-[1,4]oxazin-3-yl)-4-fluoro-phenyl]-amide] | 426 |
| Cc1cc(OC(F)F)cnc1C(=O)Nc1ccc(F)c([C@]2(C)COC(CF)(CF)C(N)=N2)c1 [Example 254, 5-Difluoromethoxy-3-methyl-pyridine-2-carboxylic acid [3-((R)-5-amino-6,6-bis-fluoromethyl-3-methyl-3,6-dihydro-2H-[1,4]oxazin-3-yl)-4-fluoro-phenyl]-amide] | 59 |
| Cc1cc(C#N)cnc1C(=O)Nc1ccc(F)c([C@]2(CF)COC(CF)(CF)C(N)=N2)c1 [Example 256, 5-Cyano-3-methyl-pyridine-2-carboxylic acid [3-((R)-5-amino-3,6,6-tris-fluoromethyl-3,6-dihydro-2H-[1,4]oxazin-3-yl)-4-fluoro-phenyl]-amide] | 18 |

Continued, values first:

| IC50 [nM] | SMILES |
| --- | --- |
| 9 | Cc1cc(Cl)cnc1C(=O)Nc1ccc(F)c(C2(C)COC(CF)(CF)C(N)=N2)c1 (centres unmarked) [Example 255, 5-Chloro-3-methyl-pyridine-2-carboxylic acid [3-(5-amino-6,6-bis-fluoromethyl-3-methyl-3,6-dihydro-2H-[1,4]oxazin-3-yl)-4-fluoro-phenyl]-amide] |
| 256 | C[C@@]1(c2cccc(NC(=O)c3ccc(Br)cn3)n2)COCC(N)=N1 [Example 257, 5-Bromo-pyridine-2-carboxylic acid [6-((R)-5-amino-3-methyl-3,6-dihydro-2H-[1,4]-oxazin-3-yl)-pyridin-2-yl]-amide] |
| 1390 | NC1=NC(CF)(c2cccc(NC(=O)c3ccc(Cl)cn3)n2)COC1 (centres unmarked) [Example 259, 5-{6-[(5-Chloro-pyridine-2-carbonyl)-amino]-pyridin-2-yl}-5-fluoromethyl-5,6-dihydro-2H-[1,4]oxazin-3-yl-ammonium trifluoro acetate] |
| 1660 | NC1=NC(CF)(c2cccc(NC(=O)c3ccc(Br)cn3)n2)COC1 (centres unmarked) [Example 260] |
| 1020 | Cc1cc(C#N)cnc1C(=O)Nc1cccc(C2(CF)COCC(N)=N2)n1 (centres unmarked) [Example 261, 5-{6-[(5-Cyano-3-methyl-pyridine-2-carbonyl)-amino]-pyridin-2-yl}-5-fluoromethyl-5,6-dihydro-2H-[1,4]oxazin-3-yl-ammonium trifluoro acetate] |
